Key:
KK/Ay mice = test: Efficacy in Type 2 diabetes-model mice (KK/Ay mice); assay type: in vivo, mouse
Protocol: KK/Ay male mice of 5 weeks of age (CLEA Japan, Inc.) were purchased; a feeding stuff for growth CMF (Oriental Yeast) was provided since the day of arrival; and mice after growth for 3 weeks or longer were used. The compound of Example 1 was diluted to 2 mg/mL, as it is dissolved in physiological saline, and the solution was administered subcutaneously in an amount of 5 mL/kg, by using a disposable syringe (Terumo) and a 26G injection needle (Terumo). Physiological saline was administered to the mice in the vehicle group. The solution was administered once a day from the day of first administration (day 0) to day 13, and the tail vein was cut open with a knife (disposable scalpel, FEATHER) and the blood sugar was determined with a simplified blood sugar analyzer (MediSense Precision Xceed, Abotto Japan). Statistical treatment of the individual data obtained was carried out by a two-group test (unpaired t-test).

DIO mice = test: Insulin tolerance test (ITT) in DIO mice; assay type: in vivo, mouse; conditions: day 27, insulin 0.3 unit/kg i.p., FIG. 1
Protocol: The blood was collected (approximately 70 μL) from the same site by using a heparin-treated capillary (Hematokrit Kapilaren, 75 μL, […] LABORGERATE) and the collected blood was centrifuged (12,000 rpm, 7 min, 4° C.) in a hematocrit centrifuge (KUBOTA3100, Kubota Corp.) and the plasma was stored, as it is frozen in an Eppendorf tube, until it is used for measurement of triglyceride. The triglyceride measurement was carried out by using Triglyceride E-Test Wako (Wako Pure Chemical Industries). Four μL of the sample was added to 250 μL of the coloring liquid, after reaction at 37° C. for 1 hour, and the absorbance (595 nm) of the mixture was determined by using a microplate reader (Bio-Rad, Model 680). Separately, insulin tolerance test (ITT) was performed on day 27.
The mouse was left non-feeded in a fasting cage after drug administration on day 26. In the morning of the day of ITT (day 27), the fasting blood sugar was determined by a method identical with that used for blood sugar measurement on day 26. The blood sugar was measured once again in the afternoon of the same day; an insulin solution was administered intraperitoneally (0.3 unit/5 mL/kg) immediately after then; and the blood sugar was measured 30, 60, 120 and 180 minutes after insulin administration since then. […]
The insulin level was measured by using an insulin measurement kit (Lebis Insulin Mouse U, Shibayagi). […]

conscious rat = test: Effect on the cardiovascular system (heart rate) of conscious rat; assay type: in vivo; conditions: conscious SD rat, s.c. 1, 3 and 10 mg/kg at 30 minute intervals, FIG. 2
Protocol: SD male rats of 7 weeks of age (Charles River Laboratories Japan Inc.) were purchased and used when they are 8 weeks of age. The rats were anesthetized by intraperitoneal administration of pentobarbital at 60 mg/kg; the back central region and the femoral region were cut open; a polyethylene tube (SP-31, Natsume Seisakusho Co., Ltd.) connected to a polyurethane tube (BC-3.5P, American Access Technologies) was inserted from the back to the femoral region, to place the polyethylene tube in femoral artery. After the femoral region was sutured, a flexible stainless steel pipe containing the polyethylene tube was sutured and fixed to the back skin. Heparin at 100 IU to 200 IU/mL was filled into the polyethylene tube and the polyurethane tube for prevention of blood clotting. After surgical operation, the rats were placed and grown back in 5-compartment wire mesh cage. […]
The heart rate of the rats was determined, by sending the pulse wave obtained in the blood pressure amplifier (AP-641G, Nihon Kohden Corp.) attached to the Life Kit for monitoring blood pressure to an instantaneous heart rate meter unit (AT-601T, Nihon Kohden Corp.). The heart rate was recorded on the chart paper in a thermal multirecorder (RIA-1300A, Nihon Kohden Corp.) by using a polygraph (RM-6000, Nihon Kohden Corp.). […]

## COc1cc(CN[C@@H](C)[C@H](O)c2ccc(O)c(NS(C)(=O)=O)c2)cc(OC)c1 [Example 1, N-(5-((1R,2S)-2-(3,5-Dimethoxybenzylamino)-1-hydroxypropyl)-2-hydroxyphenyl)methanesulfonamide]
KK/Ay mice
  blood sugar versus solvent group: lowered the blood sugar statistically significantly
KK/Ay mice; 10 mg/kg s.c. once a day, day 0 to day 13
  Blood sugar: 336 ± 33 mg/dL
DIO mice
  blood sugar after insulin administration (ITT) versus vehicle group: declined statistically significantly
Conscious rat
  influence on heart rate: did not have any influence on rat heart rate

Reference: patent US8198330B2, “Therapeutic or prophylactic agent for diabetes, obesity, dyslipidemia or metabolic syndrome comprising benzylamine derivative or pharmaceutically acceptable acid addition salt thereof” (Toray Industries, Inc., priority 2008, dated 2012)
